Results taken from patent publication US20250302846A1, “ANTIBIOTIC COMPOSITION AND METHODS OF USE THEREOF” (THE REGENTS OF THE UNIVERSITY OF COLORADO A BODY CORPORATE, priority 2022, published 2025).
Values after ≈ are worked out from the molar mass of the structure shown. Read-outs that look alike come from different tables or passages of the source. Blank lines part the entries; values can stand above or below the compound they belong to.

Legend:
[1] = system: RAW 264.7 cells; test: Mitochondrial membrane potential with TMRM; details: uninfected RAW 264.7 cells; D66 first two hours; CCCP 7 μM
[2] = system: S. Typhimurium; test: Propidium iodide membrane barrier assay; assay type: cell-based; details: LB with PMB [0.5 μg/mL]; D66 at 2x MIC95; SDS [0.005%] positive control
Protocol: FIG. 3A-F. D66 rapidly perturbs the bacterial cytoplasmic membrane with minor disruption of barrier function. Mid-log phase S. Typhimurium cells grown in LB with 0.5 μg/mL PMB were used for all experiments. A) Cell membrane potential was monitored with the fluorescent dye DiSC3 (5). Cells were treated at time 0 with DMSO, JD1 [70 μM], or D66. Data were normalized to DMSO at time 0 and corrected for the quenching effect of D66 (FIG. 6A, B) B) Cell membrane permeability was monitored by PI fluorescence. Cells were treated at time 0 with DMSO, SDS [0.005%] or D66. Samples were processed at the time points shown. A one-way ANOVA with a Dunnet's multiple comparison test, * P<0.005. C-F) Growth curves and kill-curves of cells treated at time 0 with either DMSO or D66. Culture aliquots were monitored for OD600 (C, E) or plated for enumeration of CFU (D, F). Data are presented as fold change. Mean and SEM of three biological replicates with technical triplicates are shown in all panels.
Propidium iodide membrane barrier assays: Compound, DMSO, or SDS was added to mid-log phase cells to the desired concentration, and cultures were sampled at 0, 10, 15, 20, 30 and 45 minutes. Five minutes before harvesting, PI [10 μg/mL] (Life Technologies) was added. Cells were pelleted, washed twice, resuspended in PBS, and monitored (ex535/em617 nm) using a BioTek Synergy H1 plate reader.

[3] = system: staphylococcal strains; test: MIC95 quoted for staphylococcal persister and biofilm experiments; assay type: cell-based; details: read-out: MIC95
Protocol: A-D) Overnight cultures of the indicated strains were treated at time 0 with DMSO, ciprofloxacin [4 μg/mL], vancomycin [10 μg/mL], or the corresponding MIC95 concentration of D66 (1x MIC95=130 μM, 49 μg/mL). Cultures were plated for enumeration of CFU at time points indicated. Mean and SEM of three biological replicates. E) RAW 264.7 macrophage-like cells and HeLa cells were infected with S. aureus USA300, at MOIs of 0.5 and 2.5, respectively. Cells were treated two hours after infection with DMSO (gray circle on Y axis), or dilutions of D66 from 40 μM. After 8 hours of infection, cells were lysed and plated for enumeration of CFU. Mean and SEM of biological duplicates performed with technical triplicates each with six dilutions of D66. The IC50 value that was calculatable is indicated.
Biofilm formation was monitored after 18 hours in TSB with subinhibitory concentrations of DMSO, rifampin (1x MIC95=0.05 μg/mL), vancomycin (1x MIC95=1 μg/mL), or D66 (1x MIC95=130 μM). A-D) Crystal violet staining for accumulated biofilm mass measured at A595. Mean and […]

Compound: N#CC(C#N)=NNc1cccc(Cl)c1 [CCCP, carbonyl cyanide m-chlorophenyl hydrazone, reference compound]
- TMRM fluorescence (mitochondrial membrane potential) [1]: decreased TMRM fluorescence

Compound: CCCCCCCCCCCCOS(=O)(=O)[O-].[Na+] [SDS, reference compound]
- time of treatment after which PI signal increased [2]: 10 min

- MIC ([3]; staphylococcal strains): 0.05 µg/mL (≈ 0.0608 µM)
Compound: CO[C@H]1/C=C/O[C@@]2(C)Oc3c(C)c(O)c4c(O)c(c(/C=N/N5CCN(C)CC5)c(O)c4c3C2=O)NC(=O)/C(C)=C\C=C\[C@H](C)[C@H](O)[C@@H](C)[C@@H](O)[C@@H](C)[C@H](OC(C)=O)[C@@H]1C [rifampin, reference compound]

Compound: CN[C@H](CC(C)C)C(=O)N[C@H]1C(=O)N[C@@H](CC(N)=O)C(=O)N[C@H]2C(=O)N[C@H]3C(=O)N[C@H](C(=O)N[C@H](C(=O)O)c4cc(O)cc(O)c4-c4cc3ccc4O)[C@H](O)c3ccc(c(Cl)c3)Oc3cc2cc(c3O[C@@H]2O[C@H](CO)[C@@H](O)[C@H](O)[C@H]2O[C@H]2C[C@](C)(N)[C@H](O)[C@H](C)O2)Oc2ccc(cc2Cl)[C@H]1O [vancomycin, reference compound]
- MIC [3]: 1 µg/mL (≈ 0.69 µM)
